Experimental data as given in ChEMBL document CHEMBL1212769, “Multiple-dose safety, tolerability, and pharmacokinetics of oral nemonoxacin (TG-873870) in healthy volunteers” (Antimicrob Agents Chemother, 2010).

Experiments:
[1] = Renal clearance in human at 75 […], po measured on day 10; format: ADME, organism-based, Kidney; set-up: route oral; conditions: in vivo, read-out: CL_renal (converted)
[2] = Renal clearance in human at 250 […], po measured on day 1; format: ADME, organism-based, Kidney; set-up: route oral; conditions: in vivo, read-out: CL_renal (converted)
[3] = Renal clearance in human at 250 […], po measured on day 10; format: ADME, organism-based, Kidney; set-up: route oral; conditions: in vivo, read-out: CL_renal (converted)
[4] = Renal clearance in human at 500 […], po measured on day 1; format: ADME, organism-based, Kidney; set-up: route oral; conditions: in vivo, read-out: CL_renal (converted)
[5] = Renal clearance in human at 500 […], po measured on day 10; format: ADME, organism-based, Kidney; set-up: route oral; conditions: in vivo, read-out: CL_renal (converted)
[6] = Renal clearance in human at 500 […], po measured on day 16; format: ADME, organism-based, Kidney; set-up: route oral; conditions: in vivo, read-out: CL_renal (converted)
[7] = Renal clearance in human at 750 […], po measured on day 1; format: ADME, organism-based, Kidney; set-up: route oral; conditions: in vivo, read-out: CL_renal (converted)
[8] = Renal clearance in human at […], po measured on day 10; format: ADME, organism-based, Kidney; conditions: in vivo, read-out: CL_renal (converted)
[9] = Renal clearance in human at 1000 […], po measured on day 1; format: ADME, organism-based, Kidney; set-up: route oral; conditions: in vivo, read-out: CL_renal (converted)
[10] = Renal clearance in human at 1000 […], po measured on day 10; format: ADME, organism-based, Kidney; set-up: route oral; conditions: in vivo, read-out: CL_renal (converted)
[11] = AUC (0 to 24 hrs) in human at 75 mg/kg, po measured on day 10; format: ADME, organism-based; set-up: time < 24 hr, dose 75 mg/kg, route oral; conditions: plasma
[12] = AUC (0 to last) in human at 75 mg/kg, po measured on day 1; format: ADME, organism-based; set-up: time 0 - last, dose 75 mg/kg, route oral; conditions: plasma
[13] = AUC (0 to 24 hrs) in human at 250 mg/kg, po measured on day 10; format: ADME, organism-based; set-up: time < 24 hr, dose 250 mg/kg, route oral; conditions: plasma
[14] = AUC (0 to last) in human at 250 mg/kg, po measured on day 1; format: ADME, organism-based; set-up: time 0 - last, dose 250 mg/kg, route oral; conditions: plasma
[15] = AUC (0 to 24 hrs) in human at 750 mg/kg, po measured on day 10; format: ADME, organism-based; set-up: time < 24 hr, dose 750 mg/kg, route oral; conditions: plasma
[16] = AUC (0 to last) in human at 750 mg/kg, po measured on day 1; format: ADME, organism-based; set-up: dose 750 mg/kg, route oral, time 0 - last; conditions: plasma
[17] = AUC (0 to 24 hrs) in human at 1000 […], po measured on day 10; format: ADME, organism-based; set-up: time < 24 hr, dose 1000 mg/kg, route oral; conditions: plasma
[18] = AUC (0 to last) in human at 1000 […], po measured on day 1; format: ADME, organism-based; set-up: time 0 - last, dose 1000 mg/kg, route oral; conditions: plasma
[19] = AUC (0 to 24 hrs) in human at 500 mg/kg, po measured on day 1; format: ADME, organism-based; set-up: time < 24 hr, dose 500 mg/kg, route oral; conditions: plasma
[20] = AUC (0 to 24 hrs) in human at 500 mg/kg, po measured on day 16; format: ADME, organism-based; set-up: time < 24 hr, dose 500 mg/kg, route oral; conditions: plasma
[21] = AUC(0 to last) in human at 500 mg/kg, po measured on day 1; format: ADME, organism-based; set-up: time 0 - last, dose 500 mg/kg, route oral; conditions: plasma
[22] = AUC (0 to last) in human at 500 mg/kg, po measured on day 10; format: ADME, organism-based; set-up: time 0 - last, dose 500 mg/kg, route oral; conditions: plasma
[23] = Oral clearance in human at 750 […] measured on day 1; format: ADME, organism-based; conditions: in vivo
[24] = Oral clearance in human at 750 […] measured on day 10; format: ADME, organism-based; conditions: in vivo
Streptococcus pneumoniae = assay: Ratio of fAUC (0 to 24 hrs) to MIC90 for Streptococcus pneumoniae; format: functional
[25] = Cmax in human at 500 […], po measured on day 16; format: ADME, organism-based; set-up: dose 500 mg/kg, route oral; conditions: in vivo
Homo sapiens [26] = assay: Toxicity in human assessed as incidence of headache at 1000 […], po administered as single dose; format: organism-based; set-up: route oral; conditions: in vivo
Homo sapiens [27] = assay: Toxicity in human assessed as occurrence of dermatitis at 250 […], po administered as single dose; format: organism-based; set-up: route oral; conditions: in vivo
Homo sapiens [28] = assay: Toxicity in human assessed as occurrence of dermatitis at 500 […], po administered as single dose; format: organism-based; set-up: route oral; conditions: in vivo
Homo sapiens [29] = assay: Toxicity in human assessed as occurrence of dermatitis at 750 […], po administered as single dose; format: organism-based; set-up: route oral; conditions: in vivo
Homo sapiens [30] = assay: Toxicity in human assessed as occurrence of rashes at 75 […], po administered as single dose; format: organism-based; set-up: route oral; conditions: in vivo
Homo sapiens [31] = assay: Toxicity in human assessed as occurrence of rashes at 250 […], po administered as single dose; format: organism-based; set-up: route oral; conditions: in vivo
Homo sapiens [32] = assay: Toxicity in human assessed as occurrence of rashes at 1000 […], po administered as single dose; format: organism-based; set-up: route oral; conditions: in vivo
Homo sapiens [33] = assay: Toxicity in human assessed as occurrence of abdominal pain at 250 […], po administered as single dose; format: organism-based, Abdomen; set-up: route oral; conditions: in vivo
Homo sapiens [34] = assay: Toxicity in human assessed as occurrence of abdominal pain at 500 […], po administered as single dose; format: organism-based, Abdomen; set-up: route oral; conditions: in vivo
Homo sapiens [35] = assay: Toxicity in human assessed as occurrence of abdominal pain at 750 […], po administered as single dose; format: organism-based, Abdomen; set-up: route oral; conditions: in vivo
Homo sapiens [36] = assay: Toxicity in human assessed as occurrence of abdominal pain at 1000 […], po administered as single dose; format: organism-based, Abdomen; set-up: route oral; conditions: in vivo
Homo sapiens [37] = assay: Toxicity in human assessed as occurrence of pruritus at 75 […], po administered as single dose; format: organism-based; set-up: route oral; conditions: in vivo
Homo sapiens [38] = assay: Toxicity in human assessed as occurrence of pruritus at 250 […], po administered as single dose; format: organism-based; set-up: route oral; conditions: in vivo
Homo sapiens [39] = assay: Toxicity in human assessed as occurrence of pruritus at 500 […], po administered as single dose; format: organism-based; set-up: route oral; conditions: in vivo
Homo sapiens [40] = assay: Toxicity in human assessed as occurrence of diarrhea at 250 […], po administered as single dose; format: organism-based; set-up: route oral; conditions: in vivo
Homo sapiens [41] = assay: Toxicity in human assessed as occurrence of diarrhea at 500 […], po administered as single dose; format: organism-based; set-up: route oral; conditions: in vivo
Homo sapiens [42] = assay: Toxicity in human assessed as occurrence of diarrhea at 750 […], po administered as single dose; format: organism-based; set-up: route oral; conditions: in vivo
Homo sapiens [43] = assay: Toxicity in human assessed as occurrence of diarrhea at […], po administered as single dose; format: organism-based; set-up: route oral; dose or concentration left out as unconfirmed; conditions: in vivo
Homo sapiens [44] = assay: Toxicity in human assessed as occurrence of pollakiuria at 75 […], po administered as single dose; format: organism-based; set-up: route oral; conditions: in vivo
Homo sapiens [45] = assay: Toxicity in human assessed as occurrence of pollakiuria at 250 […], po administered as single dose; format: organism-based; set-up: route oral; conditions: in vivo
Homo sapiens [46] = assay: Toxicity in human assessed as occurrence of pollakiuria at 500 […], po administered as single dose; format: organism-based; set-up: route oral; conditions: in vivo
Homo sapiens [47] = assay: Toxicity in human assessed as occurrence of somnolence at 250 […], po administered as single dose; format: organism-based; set-up: route oral; conditions: in vivo
Homo sapiens [48] = assay: Toxicity in human assessed as occurrence of somnolence at 500 […], po administered as single dose; format: organism-based; set-up: route oral; conditions: in vivo
Homo sapiens [49] = assay: Toxicity in human assessed as occurrence of somnolence at 750 […], po administered as single dose; format: organism-based; set-up: route oral; conditions: in vivo
Homo sapiens [50] = assay: Toxicity in human assessed as occurrence of somnolence at 1000 […], po administered as single dose; format: organism-based; set-up: route oral; conditions: in vivo
[51] = Cmax in human at 75 […], po measured on day 1; format: ADME, organism-based; set-up: dose 75 mg/kg, route oral; conditions: in vivo
[52] = Cmax in human at 250 […], po measured on day 1; format: ADME, organism-based; set-up: dose 250 mg/kg, route oral; conditions: in vivo
Homo sapiens [53] = species: Homo sapiens; assay: Plasma protein binding in human; conditions: read-out: PPB (converted)

CL renal [1]: 168 mL/min
CL renal [2]: 115 mL/min
CL renal [3]: 129 mL/min
CL renal [4]: 115 mL/min
CL renal [5]: 131 mL/min
CL renal [6]: 113 mL/min
CL renal [7]: 133 mL/min
CL renal [8]: 93.8 mL/min
CL renal [9]: 125 mL/min
CL renal [10]: 115 mL/min
AUC at 24 h [11]: 4270 ng·h/mL
AUC(0-t) [12]: 3780 ng·h/mL
AUC at 24 h [13]: 16100 ng·h/mL
AUC(0-t) [14]: 13700 ng·h/mL
AUC at 24 h [15]: 58400 ng·h/mL
AUC(0-t) [16]: 46000 ng·h/mL
AUC at 24 h [17]: 74800 ng·h/mL
AUC(0-t) [18]: 59600 ng·h/mL
AUC(0-t) at 24 h [19]: 31600 ng·h/mL
AUC at 24 h [20]: 22700 ng·h/mL
AUC(0-t) [21]: 31600 ng·h/mL
AUC(0-t) [22]: 46700 ng·h/mL
CL/F [23]: 252 mL/min
CL/F [24]: 189 mL/min
Cmax [25]: 2750 ng/mL
Cmax [51]: 502 ng/mL
Cmax [52]: 2000 ng/mL
fraction unbound (Homo sapiens [53]): 0.84
SMILES: COc1c(N2C[C@@H](C)C[C@H](N)C2)ccc2c(=O)c(C(=O)O)cn(C3CC3)c12 [NEMONOXACIN]
Ratio (Streptococcus pneumoniae): > 100
Activity (Homo sapiens [26]): 0%
Activity (Homo sapiens [27]): 0%
Activity (Homo sapiens [28]): 0%
Activity (Homo sapiens [29]): 0%
Activity (Homo sapiens [30]): 0%
Activity (Homo sapiens [31]): 0%
Activity (Homo sapiens [32]): 0%
Activity (Homo sapiens [33]): 0%
Activity (Homo sapiens [34]): 0%
Activity (Homo sapiens [35]): 0%
Activity (Homo sapiens [36]): 0%
Activity (Homo sapiens [37]): 0%
Activity (Homo sapiens [38]): 0%
Activity (Homo sapiens [39]): 0%
Activity (Homo sapiens [40]): 0%
Activity (Homo sapiens [41]): 0%
Activity (Homo sapiens [42]): 0%
Activity (Homo sapiens [43]): 0%
Activity (Homo sapiens [44]): 0%
Activity (Homo sapiens [45]): 0%
Activity (Homo sapiens [46]): 0%
Activity (Homo sapiens [47]): 0%
Activity (Homo sapiens [48]): 0%
Activity (Homo sapiens [49]): 0%
Activity (Homo sapiens [50]): 0%
